Data as given in patent US12178842B2, “PCSK9 antagonist compounds” (MERCK SHARP & DOHME LLC, priority 2019, dated 2024).

Columns and labels:
Type in all cases: binding
PCSK9 [1] = molecular target: T1, PCSK9 (Homo sapiens, UniProt Q8NBP7); assay: PCSK9 Alexa FRET Standard TR-FRET assay; settings: Ki calculated from IC50 and KD of AF cyclic peptide Reagent A; 0.5 nM PCSK9, 20 nM AF cyclic peptide; read-out: Alexa FRET Stdt TR-FRET
T1 construct: biotin (biotinylated); purchased
Experimental: A solution containing 1 nM biotinylated PCSK9+2.5 nM Lance Streptavidin Europium (Strep-Eu) is made in 50 mM HEPES pH 7.4, 0.15 M NaCl, 5 mM CaCl2, 0.01% BSA, and 0.01% Surfactant P20. A separate solution containing 40 nM of the AlexaFluor tagged cyclic peptide is made in the same buffer system. An Echo is used to transfer 0.750 ul of compound to an assay plate followed by the addition of 15 ul of PCSK9+Stept-Eu and 15 ul of AF peptide. The final assay volume is 30.750 ul containing 0.5 nM PCSK9, 1.25 nM Strep-Eu, and 20 nM AF cyclic peptide. The reaction is incubated at room temperature for at least two hours prior to fluorescence measurements using an Envision Multilabel Reader. IC50 values are determined by fitting data to a sigmoidal dose-response curve using nonlinear regression. Ki is then calculated from the Ic50 and the KD of AF cyclic peptide. Counts (B-counts) of the europium-labeled PCSK9 are followed to observe if compounds are adversely PCSK9. A fall off of the B-counts likely indicates a false positive of inhibition. Data from this procedure is reported as “A=‘numerical value’ (nanomolar)”

PCSK9 [2] = molecular target: T1, PCSK9; assay: PCSK9 Alexa FRET Plus TR-FRET assay
Experimental: A separate solution containing 1920 nM of the AlexaFluor tagged cyclic peptide is made in the same buffer system. […] The reaction is incubated at room temperature for at least two hours prior to fluorescence measurements using an Envision Multilabel Reader. IC50 values are determined by fitting data to a sigmoidal dose-response curve using nonlinear regression. Ki is then calculated from the Ic50 and the KD of AF cyclic peptide. Counts (B-counts) of the europium-labeled PCSK9 are followed to observe if compounds are adversely affecting PCSK9. A fall off of the B-counts is likely indicates a false positive of inhibition. Data from this procedure is reported as “P=‘numerical value’ (nanomolar)”

PCSK9 [3] = molecular target: T1, PCSK9; assay: PCSK9 Alexa FRET Ultra TR-FRET assay
Experimental: A separate solution containing 1920 nM of the AlexaFluor tagged cyclic peptide is made in the same buffer system. […] The reaction is incubated at room temperature for at least two hours prior to fluorescence measurements using an Envision Multilabel Reader. IC50 values are determined by fitting data to a sigmoidal dose-response curve using nonlinear regression. Ki is then calculated from the Ic50 and the KD of AF cyclic peptide. Counts (B-counts) of the europium-labeled PCSK9 are followed to observe if compounds are adversely affecting PCSK9. A fall off of the B-counts is likely indicates a false positive of inhibition. Data from this procedure is reported as “Ki Ultra=‘numerical value’ (data reported is nanomolar)”

[4] = Ki calculated from IC50 and KD of AF cyclic peptide Reagent B, 0.5 nM PCSK9, 960 nM AF cyclic peptide, read-out: Alexa FRET Plus TR-FRET
[5] = Ki Ultra, calculated from IC50 and KD of AF cyclic peptide, 0.5 nM PCSK9, 960 nM AF cyclic peptide, read-out: Alexa FRET Ultra TR-FRET

T1 sequence (Q8NBP7 153-692): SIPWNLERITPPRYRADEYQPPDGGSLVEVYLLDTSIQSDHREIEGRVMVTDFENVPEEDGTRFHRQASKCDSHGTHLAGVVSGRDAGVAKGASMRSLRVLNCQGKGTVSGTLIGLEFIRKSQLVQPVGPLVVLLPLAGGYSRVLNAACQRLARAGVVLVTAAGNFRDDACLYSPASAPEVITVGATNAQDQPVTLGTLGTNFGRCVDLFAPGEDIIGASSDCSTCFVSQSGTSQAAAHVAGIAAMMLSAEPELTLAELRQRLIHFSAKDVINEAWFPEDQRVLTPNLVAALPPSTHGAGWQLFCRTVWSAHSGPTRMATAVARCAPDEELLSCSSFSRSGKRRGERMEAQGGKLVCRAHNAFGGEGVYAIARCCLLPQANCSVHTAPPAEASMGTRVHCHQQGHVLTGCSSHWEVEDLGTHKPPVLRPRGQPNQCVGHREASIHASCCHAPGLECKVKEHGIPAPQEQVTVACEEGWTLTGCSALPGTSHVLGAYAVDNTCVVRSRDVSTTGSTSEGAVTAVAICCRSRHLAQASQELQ

| Structure (SMILES) | Ki (PCSK9 [1]) [pM] | Ki (PCSK9 [2]; [4]) [pM] | Ki (PCSK9 [3]; [5]) [pM] | Ki (PCSK9 [2]) [pM] | Ki (PCSK9 [3]) [pM] |
| --- | --- | --- | --- | --- | --- |
| COc1ccc(C[C@@H]2NC(=O)[C@H]([C@@H](C)O)NC(=O)[C@@H]3[C@@H]4CCN3C(=O)[C@@H]3Cc5cn(c6ccc(F)cc56)CCCCCCN(Cc5ccc(cc5)CCNC(=O)[C@]5(C)CCCN5C2=O)C(=O)CCC(=O)N[C@@H](C)C(=O)N[C@H](CNC(=O)CCOCCOCC[N+](C)(C)CCNC(=O)CCOCCOCC[N+](C)(C)CCNC(=O)COCCOCCNC(=O)COCCOCCNC(=O)CC[C@H](NC(=O)CC[C@H](NC(=O)CCCCCCCCCCCCCCC(=O)O)C(=O)O)C(=O)O)C(=O)N[C@@H](Cc2cccc(c2)CNC(=O)CO4)C(=O)N3)cc1 [Ex-11] | < 1260 | 7 | 6 |  |  |
| COC(=O)CCCCCCCCCCCCCCCCC(=O)N[C@@H](CCC(=O)NCCOCCOCC(=O)NCCOCCOCC(=O)NCC[N+](C)(C)CCCCCC(=O)NC[C@H]1NC(=O)[C@H](C)NC(=O)CCC(=O)N2CCCCCCn3cc(c4cc(F)ccc43)C[C@@H]3NC(=O)[C@H](Cc4cccc(c4)CNC(=O)CO[C@H]4CCN(C3=O)[C@@H]4C(=O)N[C@@H]([C@@H](C)O)C(=O)N[C@@H](Cc3ccc(OC)cc3)C(=O)N3CCC[C@@]3(C)C(=O)NCCc3ccc(cc3)C2)NC1=O)C(=O)OC [Ex-12] | < 1260 | 14 | 7 |  |  |
| COc1ccc(C[C@@H]2NC(=O)[C@H]([C@@H](C)O)NC(=O)[C@@H]3[C@@H]4CCN3C(=O)[C@@H]3Cc5cn(c6ccc(F)cc56)CCCCCCN(Cc5ccc(cc5)CCNC(=O)[C@]5(C)CCCN5C2=O)C(=O)CCC(=O)N[C@@H](C)C(=O)N[C@H](CNC(=O)COCCOCC[N+](C)(C)CCOCCNC(=O)COCCOCCNC(=O)COCCOCCNC(=O)CC[C@H](NC(=O)CC[C@H](NC(=O)CCCCCCCCCCCCCCCCC(=O)O)C(=O)O)C(=O)O)C(=O)N[C@@H](Cc2cccc(c2)CNC(=O)CO4)C(=O)N3)cc1 [Ex-13] | < 1260 | < 6 | 3 |  |  |
| COc1ccc(C[C@@H]2NC(=O)[C@H]([C@@H](C)O)NC(=O)[C@@H]3[C@@H]4CCN3C(=O)[C@@H]3Cc5cn(c6ccc(F)cc56)CCCCCCN(Cc5ccc(cc5)CCNC(=O)[C@]5(C)CCCN5C2=O)C(=O)CCC(=O)N[C@@H](C)C(=O)N[C@H](CNC(=O)CCC[N+](C)(C)CCNC(=O)COCCOCCNC(=O)CC[C@H](NC(=O)CC[C@H](NC(=O)CCCCCCCCCCCCCCCCC(=O)O)C(=O)O)C(=O)O)C(=O)N[C@@H](Cc2cccc(c2)CNC(=O)CO4)C(=O)N3)cc1 [Ex-14] | < 1260 |  |  | < 6 | 5 |
| COc1ccc(C[C@@H]2NC(=O)[C@H]([C@@H](C)O)NC(=O)[C@@H]3[C@@H]4CCN3C(=O)[C@@H]3Cc5cn(c6ccc(F)cc56)CCCCCCN(Cc5ccc(cc5)CCNC(=O)[C@]5(C)CCCN5C2=O)C(=O)CCC(=O)N[C@@H](C)C(=O)N[C@H](CNC(=O)CCOCCOCC[N+](C)(C)CCNC(=O)COCCOCCNC(=O)COCCOCCNC(=O)C[C@H](NC(=O)CCCCCCCCCCCCCCCCC(=O)O)C(=O)O)C(=O)N[C@@H](Cc2cccc(c2)CNC(=O)CO4)C(=O)N3)cc1 [Ex-15] | < 1260 |  |  | < 6 | 5 |
| COc1ccc(C[C@@H]2NC(=O)[C@H]([C@@H](C)O)NC(=O)[C@@H]3[C@@H]4CCN3C(=O)[C@@H]3Cc5cn(c6ccc(F)cc56)CCCCCCN(Cc5ccc(cc5)CCNC(=O)[C@]5(C)CCCN5C2=O)C(=O)CCC(=O)N[C@@H](C)C(=O)N[C@H](CNC(=O)CCOCCOCC[N+](C)(C)CCNC(=O)COCCOCCNC(=O)COCCOCCNC(=O)CC(CC(=O)O)NC(=O)CC[C@H](NC(=O)CCCCCCCCCCCCCCCCC(=O)O)C(=O)O)C(=O)N[C@@H](Cc2cccc(c2)CNC(=O)CO4)C(=O)N3)cc1 (stereo partly drawn) [Ex-16] | < 1260 |  |  | 14 | 8 |
| COc1ccc(C[C@@H]2NC(=O)[C@H]([C@@H](C)O)NC(=O)[C@@H]3[C@@H]4CCN3C(=O)[C@@H]3Cc5cn(c6ccc(F)cc56)CCCCCCN(Cc5ccc(cc5)CCNC(=O)[C@]5(C)CCCN5C2=O)C(=O)CCC(=O)N[C@@H](C)C(=O)N[C@H](CN(CCC[N+](C)(C)C)C(=O)COCCOCCNC(=O)COCCOCCNC(=O)CC[C@H](NC(=O)CCCCCCCCCCCCCCCCC(=O)O)C(=O)O)C(=O)N[C@@H](Cc2cccc(c2)CNC(=O)CO4)C(=O)N3)cc1 [Ex-17] | < 1260 | 16 | 18 |  |  |
| COc1ccc(C[C@@H]2NC(=O)[C@H]([C@@H](C)O)NC(=O)[C@@H]3[C@@H]4CCN3C(=O)[C@@H]3Cc5cn(c6ccc(F)cc56)CCCCCCN(Cc5ccc(cc5)CCNC(=O)[C@]5(C)CCCN5C2=O)C(=O)CCC(=O)N[C@@H](C)C(=O)N[C@H](CNC(=O)COCCOCCNC(=O)COCCOCCNC(=O)CC[C@H](NC(=O)CCCCCCCCCCCCCCCCC(=O)O)C(=O)O)C(=O)N[C@@H](Cc2cccc(c2)CNC(=O)CO4)C(=O)N3)cc1 [Ex-18] | < 1260 | 23 | 21 |  |  |
| CCCCCCC(=O)NCCCCCCCC(=O)N[C@@H](CCC(=O)NCCOCCOCC(=O)NCCOCCOCC(=O)NCC[N+](C)(C)CCCCCC(=O)NC[C@H]1NC(=O)[C@H](C)NC(=O)CCC(=O)N2CCCCCCn3cc(c4cc(F)ccc43)C[C@@H]3NC(=O)[C@H](Cc4cccc(c4)CNC(=O)CO[C@H]4CCN(C3=O)[C@@H]4C(=O)N[C@@H]([C@@H](C)O)C(=O)N[C@@H](Cc3ccc(OC)cc3)C(=O)N3CCC[C@@]3(C)C(=O)NCCc3ccc(cc3)C2)NC1=O)C(=O)O [Ex-19] | < 1260 | < 6 | 1 |  |  |
| CCCCCCC(=O)NCCCCCCCC(=O)NCC[N+](C)(C)CCOCCOCCC(=O)NC[C@H]1NC(=O)[C@H](C)NC(=O)CCC(=O)N2CCCCCCn3cc(c4cc(F)ccc43)C[C@@H]3NC(=O)[C@H](Cc4cccc(c4)CNC(=O)CO[C@H]4CCN(C3=O)[C@@H]4C(=O)N[C@@H]([C@@H](C)O)C(=O)N[C@@H](Cc3ccc(OC)cc3)C(=O)N3CCC[C@@]3(C)C(=O)NCCc3ccc(cc3)C2)NC1=O [Ex-20] | < 1260 | < 6 | 1 |  |  |
| CCCCCC/C=C\CCCCCCCC(=O)N[C@@H](CCC(=O)NCCOCCOCC(=O)NCCOCCOCC(=O)NCC[N+](C)(C)CCCCCC(=O)NC[C@H]1NC(=O)[C@H](C)NC(=O)CCC(=O)N2CCCCCCn3cc(c4cc(F)ccc43)C[C@@H]3NC(=O)[C@H](Cc4cccc(c4)CNC(=O)CO[C@H]4CCN(C3=O)[C@@H]4C(=O)N[C@@H]([C@@H](C)O)C(=O)N[C@@H](Cc3ccc(OC)cc3)C(=O)N3CCC[C@@]3(C)C(=O)NCCc3ccc(cc3)C2)NC1=O)C(=O)O [Ex-21] | < 1260 | 10 | 1 |  |  |
| COc1ccc(C[C@@H]2NC(=O)[C@H]([C@@H](C)O)NC(=O)[C@@H]3[C@@H]4CCN3C(=O)[C@@H]3Cc5cn(c6ccc(F)cc56)CCCCCCN(Cc5ccc(cc5)CCNC(=O)[C@]5(C)CCCN5C2=O)C(=O)CCC(=O)N[C@@H](C)C(=O)N[C@H](CNC(=O)CCOCCOCC[N+](C)(C)CCNC(=O)COCCOCCNC(=O)COCCOCCNC(=O)CC[C@H](NC(=O)CCCCCCCCCCCCCCCCC(=O)O)C(=O)O)C(=O)N[C@@H](Cc2cccc(c2)CNC(=O)CO4)C(=O)N3)cc1 [Ex-22] | < 1260 | 15 | 4 |  |  |
| COc1ccc(C[C@@H]2NC(=O)[C@H]([C@@H](C)O)NC(=O)[C@@H]3[C@@H]4CCN3C(=O)[C@@H]3Cc5cn(c6ccc(F)cc56)CCCCCCN(Cc5ccc(cc5)CCNC(=O)[C@]5(C)CCCN5C2=O)C(=O)CCC(=O)N[C@@H](C)C(=O)N[C@H](CNC(=O)CCOCCOCC[N+](C)(C)CCNC(=O)CCCCCCCCCCCCCCCCC(=O)O)C(=O)N[C@@H](Cc2cccc(c2)CNC(=O)CO4)C(=O)N3)cc1 [Ex-23] | < 1260 | < 6 | 7 |  |  |
| COc1ccc(C[C@@H]2NC(=O)[C@H]([C@@H](C)O)NC(=O)[C@@H]3[C@@H]4CCN3C(=O)[C@@H]3Cc5cn(c6ccc(F)cc56)CCCCCCN(Cc5ccc(cc5)CCNC(=O)[C@]5(C)CCCN5C2=O)C(=O)CCC(=O)N[C@@H](C)C(=O)N[C@H](CNC(=O)CCOCCOCCNC(=O)CCCCCCCCCCCCCCCCC(=O)O)C(=O)N[C@@H](Cc2cccc(c2)CNC(=O)CO4)C(=O)N3)cc1 [Ex-24] | < 1260 | 9 | 18 |  |  |
